# From ChEMBL document CHEMBL1129782, “Azole phenoxy hydroxyureas as selective and orally active inhibitors of 5-lipoxygenase” (J Med Chem, 1996)
# Tests used:
# [1] = biological target: T1, Polyunsaturated fatty acid 5-lipoxygenase (Rattus norvegicus) (UniProt P12527); assay: Ex vivo inhibitory activity at an peroral dose of 10 mg/Kg against LTB4 biosynthesis in rat blood, after pretreatment period of 6 hr; format: functional
# T1 sequence (whole entry): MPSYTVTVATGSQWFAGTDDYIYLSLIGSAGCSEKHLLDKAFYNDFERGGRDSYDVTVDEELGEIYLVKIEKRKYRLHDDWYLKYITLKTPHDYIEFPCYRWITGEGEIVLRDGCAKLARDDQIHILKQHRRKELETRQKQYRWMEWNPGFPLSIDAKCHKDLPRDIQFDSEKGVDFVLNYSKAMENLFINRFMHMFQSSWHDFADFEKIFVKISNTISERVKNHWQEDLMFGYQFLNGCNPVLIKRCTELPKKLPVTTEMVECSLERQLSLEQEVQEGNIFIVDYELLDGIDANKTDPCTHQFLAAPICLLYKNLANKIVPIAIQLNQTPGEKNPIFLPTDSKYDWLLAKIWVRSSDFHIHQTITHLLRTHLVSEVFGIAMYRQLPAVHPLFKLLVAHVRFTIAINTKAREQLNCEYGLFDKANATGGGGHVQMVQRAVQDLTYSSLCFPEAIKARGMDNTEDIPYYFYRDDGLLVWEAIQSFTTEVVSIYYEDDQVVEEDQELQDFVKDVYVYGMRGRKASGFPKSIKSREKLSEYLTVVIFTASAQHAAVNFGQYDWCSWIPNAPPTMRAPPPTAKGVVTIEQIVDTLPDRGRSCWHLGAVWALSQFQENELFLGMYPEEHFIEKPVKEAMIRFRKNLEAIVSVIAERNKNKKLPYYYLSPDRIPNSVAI
# Homo sapiens [2] = species: Homo sapiens; assay: Inhibition of LTB4 biosynthesis at 1 uM, in calcium ionophore-stimulated human whole blood leukocyte (HBL) assay.; format: functional
# [3] = biological target: T1, Polyunsaturated fatty acid 5-lipoxygenase (Rattus norvegicus); assay: Ex vivo inhibitory activity at an peroral dose of 10 mg/Kg against LTB4 biosynthesis in rat blood, after pretreatment period of 3h; format: functional
# [4] = biological target: T1, Polyunsaturated fatty acid 5-lipoxygenase (Rattus norvegicus); assay: Activity against LTB4 biosynthesis in the rat RPAR pleurisy model po (10 mg/kg); format: functional, organism-based
# Homo sapiens [5] = species: Homo sapiens; assay: Compound at 10 uM was tested in vitro for the inhibition of LTB4 biosynthesis in calcium ionophore-stimulated human whole blood leukocyte (HBL) assay; format: functional
# Rattus norvegicus [6] = assay: Ex vivo inhibitory activity at an peroral dose of 5 mg/Kg against LTB4 biosynthesis in rat blood, after pretreatment period of 6 hr; format: functional; conditions: po
# Rattus norvegicus [7] = assay: Activity against LTB4 biosynthesis in the rat RPAR pleurisy model po (25 mg/kg); format: functional
# Rattus norvegicus [8] = assay: Ex vivo inhibitory activity at an peroral dose of 25 mg/Kg against LTB4 biosynthesis in rat blood, after pretreatment period of 3h; format: functional; conditions: po
# Cavia porcellus [9] = assay: Intravenous effective dose against antigen induced bronchoconstriction in the guinea pig; format: functional
# Rattus norvegicus [10] = species: Rattus norvegicus; assay: Oral effective dose against LTB4 biosynthesis in the rat RPAR pleurisy model; format: functional
# Homo sapiens [11] = species: Homo sapiens; assay: In vitro inhibitory concentration against LTB4 biosynthesis in calcium ionophore-stimulated human whole blood leukocyte (HBL) assay; format: functional
# Rattus norvegicus [12] = species: Rattus norvegicus; assay: Ex vivo oral effective dose against LTB4 biosynthesis in rat blood, after pretreatment period of 3h; format: functional
# Cavia porcellus [13] = species: Cavia porcellus; assay: Oral effective dose against antigen induced bronchoconstriction in the guinea pig; format: functional
SMILES,inhibition [1],inhibition at 1 µM (Homo sapiens [2]),further results
NC(=O)N(O)Cc1ccc(OCc2coc(-c3ccc(C(F)(F)F)cc3)n2)cc1,68%,32%,–
Cc1oc(-c2ccccc2)nc1COc1ccc(CN(O)C(N)=O)cc1Cl,–,31%,inhibition [3]: 69%
Cc1oc(-c2ccc(C(F)(F)F)cc2)nc1CCOc1ccc(CN(O)C(N)=O)cc1F,–,36%,–
Cc1oc(-c2cccc3ccccc23)nc1CCOc1ccc(CN(O)C(N)=O)cc1,–,42%,–
Cc1oc(-c2ccc(Cl)cc2)nc1COc1cccc(CN(O)C(N)=O)c1,38%,77%,inhibition [4]: 47%
Cc1oc(-c2cc(C(F)(F)F)cc(C(F)(F)F)c2)nc1COc1cccc(CN(O)C(N)=O)c1,–,15%,inhibition at 10 µM (Homo sapiens [5]): 57%
Cc1oc(-c2ccccc2)nc1COc1cc(F)cc(CN(O)C(N)=O)c1,–,70%,inhibition [4]: 16%; inhibition in vivo at 5 mg/kg (Rattus norvegicus [6]): 52%
Cc1oc(-c2cccc(F)c2)nc1CCOc1ccc(CN(O)C(N)=O)cc1,–,63%,inhibition [3]: 80%
COc1ccc(-c2nc(COc3ccc(CN(O)C(N)=O)cc3)cs2)cc1,69%,56%,–
Cc1oc(-c2ccco2)nc1CCOc1ccc(CN(O)C(N)=O)cc1,–,64%,inhibition [3]: 41%
Cc1oc(-c2ccccc2)nc1CCOc1cccc(CN(O)C(N)=O)c1,–,51%,inhibition [3]: 0%
NC(=O)N(O)Cc1ccc(OCc2coc(-c3ccccc3)n2)cc1,–,58%,inhibition [4]: 60%; inhibition in vivo at 5 mg/kg (Rattus norvegicus [6]): 60%
COc1ccc(-c2nc(CCOc3ccc(CN(O)C(N)=O)cc3)c(C)o2)cc1,–,57%,Inhibition (Rattus norvegicus [7]): 38%; inhibition in vivo at 25 mg/kg (Rattus norvegicus [8]): 32%
NC(=S)N(O)Cc1ccc(OCc2csc(-c3ccc(Cl)cc3)n2)cc1,–,57%,inhibition in vivo at 5 mg/kg (Rattus norvegicus [6]): 0%
COc1ccc(-c2nc(COc3cccc(CN(O)C(N)=O)c3)cs2)cc1,0%,50%,–
Cc1oc(-c2ccccc2)nc1CCOc1ccc(C(C)N(O)C(N)=O)cc1 (stereo unspecified),–,0%,inhibition at 10 µM (Homo sapiens [5]): 60%; inhibition in vivo at 25 mg/kg (Rattus norvegicus [8]): 57%
Cc1oc(-c2ccccc2)nc1CCOc1cccc(C(C)N(O)C(N)=O)c1 (stereo unspecified),–,34%,–
Cc1oc(-c2ccc(C(F)(F)F)cc2)nc1COc1cc(F)cc(CN(O)C(N)=O)c1,–,15%,inhibition at 10 µM (Homo sapiens [5]): 85%
Cc1oc(-c2ccc(C(F)(F)F)cc2)nc1COc1ccc(CN(O)C(N)=O)cc1,–,34%,inhibition [4]: 45%; inhibition in vivo at 5 mg/kg (Rattus norvegicus [6]): 69%
NC(=O)N(O)Cc1cccc(OCc2csc(-c3ccccc3)n2)c1,80%,66%,inhibition [4]: 40%; ED50 (Cavia porcellus [9]): 6 mg/kg
Cc1oc(-c2ccc(F)cc2)nc1CCOc1ccc(CN(O)C(N)=O)cc1,–,70%,inhibition [3]: 66%
Cc1oc(-c2ccccc2)nc1CCOc1ccc(CN(O)C(N)=O)cc1,–,55%,inhibition [3]: 0%; inhibition [4]: 69%; inhibition in vivo at 25 mg/kg (Rattus norvegicus [8]): 79%
Cc1oc(-c2ccc(SC(F)(F)F)cc2)nc1CCOc1ccc(CN(O)C(N)=O)cc1,0%,50%,–
CC(c1cc2ccccc2s1)N(O)C(N)=O (stereo unspecified) [ZILEUTON],–,–,ED50 (Rattus norvegicus [10]): 7.8 mg/kg; ED50 (Cavia porcellus [9]): 19 mg/kg; IC50 (Homo sapiens [11]): 3000 nM; ED50 (Rattus norvegicus [12]): 10.2 mg/kg; ED50 (Cavia porcellus [13]): 46 mg/kg

SMILES,inhibition [1],inhibition at 1 µM (Homo sapiens [2]),further results
NC(=O)N(O)Cc1ccc(OCCc2csc(-c3ccc(C(F)(F)F)cc3)n2)cc1,–,57%,inhibition in vivo at 5 mg/kg (Rattus norvegicus [6]): 0%
Cc1oc(-c2ccccc2)nc1COc1ccc(C(C)N(O)C(N)=O)cc1 (stereo unspecified),–,17%,inhibition at 10 µM (Homo sapiens [5]): 57%
Cc1oc(-c2cccs2)nc1CCOc1ccc(CN(O)C(N)=O)cc1,–,64%,inhibition [3]: 24%
Cc1oc(-c2ccccc2)nc1COc1cccc(CN(O)C(N)=O)c1,0%,52%,inhibition [4]: 33%; Inhibition (Rattus norvegicus [7]): 79%; inhibition in vivo at 25 mg/kg (Rattus norvegicus [8]): 78%
NC(=O)N(O)Cc1ccc(OCc2csc(-c3ccccc3)n2)cc1,67%,44%,–
Cc1oc(-c2cccc(C(F)(F)F)c2)nc1COc1cccc(CN(O)C(N)=O)c1,0%,51%,–
COc1cc(CN(O)C(N)=O)ccc1OCc1nc(-c2ccccc2)oc1C,–,19%,inhibition at 10 µM (Homo sapiens [5]): 81%
Cc1oc(-c2ccccc2)nc1COc1ccc(CN(O)C(N)=O)cc1,0%,50%,inhibition [3]: 84%; inhibition [4]: 36%; Inhibition (Rattus norvegicus [7]): 69%
Cc1oc(-c2ccccc2F)nc1CCOc1ccc(CN(O)C(N)=O)cc1,–,54%,inhibition [3]: 71%
CCCCCCc1nc(CCOc2ccc(CN(O)C(N)=O)cc2)c(C)o1,–,44%,–
NC(=O)N(O)Cc1ccc(OCCc2csc(-c3ccccc3)n2)cc1,–,19%,–
Cc1oc(-c2ccccc2)nc1COc1cccc(C(C)N(O)C(N)=O)c1 (stereo unspecified),–,10%,inhibition at 10 µM (Homo sapiens [5]): 80%
NC(=O)N(O)Cc1ccc(OCc2csc(-c3ccc(C(F)(F)F)cc3)n2)cc1,0%,56%,–
Cc1oc(-c2ccc(C(F)(F)F)cc2)nc1COc1cccc(CN(O)C(N)=O)c1,–,48%,inhibition [4]: 59%; inhibition in vivo at 5 mg/kg (Rattus norvegicus [6]): 55%
Cc1oc(-c2ccccc2)nc1CCOc1ccc(CN(O)C(N)=O)cc1F,–,71%,inhibition [3]: 52%; Inhibition (Rattus norvegicus [7]): 58%
NC(=O)N(O)Cc1cccc(OCCc2csc(-c3ccc(C(F)(F)F)cc3)n2)c1,0%,30%,–
NC(=O)N(O)Cc1ccc(OCCc2noc(-c3ccccc3)n2)cc1,–,70%,Inhibition (Rattus norvegicus [7]): 19%; inhibition in vivo at 5 mg/kg (Rattus norvegicus [6]): 59%
NC(=O)N(O)Cc1ccc(OCCc2coc(-c3ccccc3)n2)cc1,–,47%,inhibition in vivo at 5 mg/kg (Rattus norvegicus [6]): 0%
NC(=S)N(O)Cc1cccc(OCc2coc(-c3ccc(F)cc3)n2)c1,0%,61%,–
Cc1oc(-c2ccccc2)nc1COc1ccc(CN(O)C(N)=O)cc1F,–,47%,inhibition [3]: 66%; Inhibition (Rattus norvegicus [7]): 27%
NC(=O)N(O)Cc1cccc(OCc2csc(-c3ccc(Cl)cc3)n2)c1,63%,68%,inhibition [4]: 0%
NC(=O)N(O)Cc1ccc(OCc2csc(-c3ccc(Cl)cc3)n2)cc1,0%,71%,–
Cc1ccc(-c2nc(CCOc3ccc(CN(O)C(N)=O)cc3)c(C)o2)cc1,–,40%,Inhibition (Rattus norvegicus [7]): 48%; inhibition in vivo at 5 mg/kg (Rattus norvegicus [6]): 0%
COc1cc(CN(O)C(N)=O)cc(OCc2nc(-c3ccc(C(F)(F)F)cc3)oc2C)c1,–,0%,inhibition at 10 µM (Homo sapiens [5]): 59%
